Counter-ions that a name gives are not always drawn. A value given as a limit tells only on which side of the number the result lay.

Results on 32 compounds are retold here after patent US7674795B2, “Fluorene derivatives, composition containing said derivatives and the use thereof” (Aventis Pharma SA, priority 2005, dated 2010).

Sequence of Hsp82 (P02829 whole entry): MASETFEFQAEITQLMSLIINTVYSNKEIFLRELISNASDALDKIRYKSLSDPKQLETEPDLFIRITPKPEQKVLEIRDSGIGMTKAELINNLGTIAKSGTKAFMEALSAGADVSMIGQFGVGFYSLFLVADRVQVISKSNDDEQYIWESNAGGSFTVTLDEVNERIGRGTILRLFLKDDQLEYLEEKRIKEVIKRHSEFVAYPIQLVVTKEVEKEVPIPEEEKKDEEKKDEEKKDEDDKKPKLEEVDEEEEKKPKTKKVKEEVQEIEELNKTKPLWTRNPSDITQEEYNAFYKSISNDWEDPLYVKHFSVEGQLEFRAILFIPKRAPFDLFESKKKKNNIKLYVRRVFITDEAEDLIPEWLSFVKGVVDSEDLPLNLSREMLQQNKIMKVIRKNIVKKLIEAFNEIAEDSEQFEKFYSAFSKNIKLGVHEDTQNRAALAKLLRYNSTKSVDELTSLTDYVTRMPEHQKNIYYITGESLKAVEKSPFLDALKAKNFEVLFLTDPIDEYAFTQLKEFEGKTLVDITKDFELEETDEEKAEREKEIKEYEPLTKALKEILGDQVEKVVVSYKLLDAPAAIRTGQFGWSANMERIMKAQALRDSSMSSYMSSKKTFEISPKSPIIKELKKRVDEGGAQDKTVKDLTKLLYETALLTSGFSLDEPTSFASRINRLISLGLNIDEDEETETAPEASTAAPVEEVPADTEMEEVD

The first data set deals with Hsp82 (Saccharomyces cerevisiae, UniProt P02829). In words: PK/LDH enzyme coupling test of the ATPase activity of Hsp82 (NADH decrease at 340 nm). Format: biochemical. Particulars: 1 μM Hsp82, 250 μM ATP, 37° C., pyruvate kinase/lactate dehydrogenase coupling, read-out: Hsp82 ATPase IC50. The procedure, abridged:
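Yeast Hsp82 ATPase was coupled to PK/LDH, with ADP formation followed continuously as NADH loss at 340 nm at 37 °C. The mixture was preincubated 30 min at 37 °C, and the reaction was started with compound at variable concentrations plus Hsp82 at 1 μM. Initial rates (μM ADP/min) came from the tangent slope at origin, expressed as % inhibition.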
In general, IC50 refers to the concentration that gives 50% inhibition. `NC1c2ccccc2-c2c(-c3nc4ccc(F)cc4[nH]3)cccc21` (racemic) [Example 71, 4-(6-fluoro-1H-benzimidazol-2-yl)-9H-fluoren-9(R,S)-ylamine]: the half-maximal inhibitory concentration (IC50) was in the range of 10 to 100 µM.
The same measure, in the same setting: in the case of `O=C1c2ccccc2-c2c1cccc2-c1nc2cnccc2[nH]1` [Example 1, 4-(3H-imidazo[4,5-c]pyridin-2-yl)-fluoren-9-one] it was 1 to 10 µM; in that of `Cn1cc(C(=O)NC2c3ccccc3-c3c(-c4nc5ccncc5[nH]4)cccc32)c2cccnc21` (racemic) [Example 101, [4-(3H-imidazo[4,5-c]pyridin-2-yl)-9H-fluoren-9(R,S)-yl]amide of 1-methyl-1H-pyrrolo[2,3-b]pyridine-3-carboxylic acid], 1 to 10 µM.
Still for that read-out and setting: in the case of `O=C(NC1c2ccccc2-c2c(-c3nc4cnccc4[nH]3)cccc21)c1cccc2ncccc12` (racemic) [Example 14, [4-(3H-imidazo[4,5-c]pyridin-2-yl)-9H-fluoren-9(R,S)-yl]amide of quinoline-5-carboxylic acid] it was below 1 µM.
Same read-out and setting: in the case of `CCOC(=O)CCNC(=O)NC1c2ccccc2-c2c(-c3nc4ccncc4[nH]3)cccc21` (racemic) [Example 77, ethyl ester of 3-{3-[4-(3H-imidazo[4,5-c]pyridin-2-yl)-9H-fluoren-9(R,S)-yl]-ureido}-propionic acid] it was 1 to 10 µM.
Take `O=C(NC1c2ccccc2-c2c(-c3nc4ccncc4[nH]3)cccc21)c1ccc2[nH]nnc2c1` (racemic) [Example 41, [4-(3H-imidazo[4,5-c]pyridin-2-yl)-9H-fluoren-9(R,S)-yl]amide trifluoroacetate of 1H-benzotriazole-5-carboxylic acid]: the IC50 was below 1 µM.
Same read-out and setting: in the case of `O=C(NC1c2ccccc2-c2c(-c3nc4ccncc4[nH]3)cccc21)N1CCOCC1` (racemic) [Example 51, [4-(3H-imidazo[4,5-c]pyridin-2-yl)-9H-fluoren-9(R,S)-yl]amide trifluoroacetate of morpholine-4-carboxylic acid] it was 1 to 10 µM.
The same measure, in the same setting: next, `O=C(NC1c2ccccc2-c2c(-c3nc4ccncc4[nH]3)cccc21)c1cccnc1` (racemic) [Example 48, N-[4-(3H-imidazo[4,5-c]pyridin-2-yl)-9H-fluoren-9(R,S)-yl]-nicotinamide]: 1 to 10 µM.
Still for that read-out and setting: in the case of `ON=C1c2ccccc2-c2c1cccc2-c1nc2ccc(F)cc2[nH]1` (racemic) [Example 70, 4-(6-fluoro-1H-benzimidazol-2-yl)-fluoren-9-one oxime (Z,E)] it was 1 to 10 µM; in that of `COc1ccc(CC(=O)NC2c3ccccc3-c3c(-c4nc5cnccc5[nH]4)cccc32)cc1` (racemic) [Example 27, N-[4-(3H-imidazo[4,5-c]pyridin-2-yl)-9H-fluoren-9(R,S)-yl]-2-(4-methoxy-phenyl)-acetamide], 1 to 10 µM; in that of `CNc1cc(C(=O)NC2c3ccccc3-c3c(-c4nc5ccncc5[nH]4)cccc32)ccn1` (racemic) [Example 116, N-[4-(3H-imidazo[4,5-c]pyridin-2-yl)-9H-fluoren-9(R,S)-yl]-2-methylamino-isonicotinamide], 1 to 10 µM.
Turning to `O=C(NC1c2ccccc2-c2c(-c3nc4ccncc4[nH]3)cccc21)c1cc(O)nc(O)n1` (stereo not drawn) [Example 88, [4-(3H-imidazo[4,5-c]pyridin-2-yl)-9H-fluoren-9-yl]amide of 2,6-dihydroxypyrimidine-4-carboxylic acid], the 50% inhibitory concentration (IC50) is 1 to 10 µM.
The same measure, in the same setting: next, `O=C(NC1c2ccccc2-c2c(-c3nc4ccncc4[nH]3)cccc21)c1cc(O)ncn1` (stereo not drawn) [Example 93, [4-(3H-imidazo[4,5-c]pyridin-2-yl)-9H-fluoren-9-yl]amide of 6-hydroxypyrimidine-4-carboxylic acid]: 1 to 10 µM; `CC(C)(C)OC(=O)N[C@H](CC(=O)NC1c2ccccc2-c2c(-c3nc4cnccc4[nH]3)cccc21)C(N)=O` (stereo partly drawn) [Example 59, tert-butyl ester of {(R)-1-carbamoyl-2-[4-(3H-imidazo[4,5-c]pyridin-2-yl)-9H-fluoren-9(R,S)-ylcarbamoyl]-ethyl}-carbamoic acid]: 1 to 10 µM.
The same measure, in the same setting: next, `NC(=O)C[C@@H](N)C(=O)NC1c2ccccc2-c2c(-c3nc4cnccc4[nH]3)cccc21` (stereo partly drawn) [Example 65, hydrochloride of (R)-2-amino-N1-[4-(3H-imidazo[4,5-c]pyridin-2-yl)-9H-fluoren-9(R,S)-yl]-succinamide]: 1 to 10 µM.
Still for that read-out and setting: in the case of `O=C1c2ccccc2-c2c1cccc2-c1nc2ccc(F)cc2[nH]1` [Example 69, 4-(6-fluoro-1H-benzimidazol-2-yl)-fluoren-9-one] it was 10 to 100 µM.
For the compound `O=C(Cc1n[nH]c(S)n1)NC1c2ccccc2-c2c(-c3nc4ccncc4[nH]3)cccc21` (racemic) [Example 42, N-[4-(3H-imidazo[4,5-c]pyridin-2-yl)-9H-fluoren-9(R,S)-yl]-2-(5-mercapto-4H-1,2,4-triazol-3-yl)-acetamide trifluoroacetate], the IC50 was 1 to 10 µM.
The same measure, in the same setting: in the case of `O=C(NC1c2ccccc2-c2c(-c3nc4ccncc4[nH]3)cccc21)c1ccnc(O)n1` (stereo not drawn) [Example 89, [4-(3H-imidazo[4,5-c]pyridin-2-yl)-9H-fluoren-9-yl]amide of 2-hydroxypyrimidine-4-carboxylic acid] it was 1 to 10 µM.
Still for that read-out and setting: next, `CCOC(=O)CNC(=O)NC1c2ccccc2-c2c(-c3nc4ccncc4[nH]3)cccc21` (racemic) [Example 78, ethyl ester of {3-[4-(3H-imidazo[4,5-c]pyridin-2-yl)-9H-fluoren-9(R,S)-yl]-ureido}-acetic acid]: 10 to 100 µM; `NC(=O)NCC(=O)NC1c2ccccc2-c2c(-c3nc4cnccc4[nH]3)cccc21` (racemic) [Example 58, N-[4-(3H-imidazo[4,5-c]pyridin-2-yl)-9H-fluoren-9(R,S)-yl]-2-ureido-acetamide]: 1 to 10 µM.
On the same count and under the same terms, in the case of `NN=C1c2ccccc2-c2c1cccc2-c1nc2cnccc2[nH]1` (mixture of isomers) [Example 9, N-[4-(1H-imidazo[4,5-c]pyridin-2-yl)-fluoren-9-ylidene]-hydrazine, 60/40 mixture of E and Z isomers] it was 1 to 10 µM; in that of `O=C(N[C@H]1c2ccccc2-c2c(-c3nc4ccncc4[nH]3)cccc21)c1cccc2ncccc12` (single isomer, unassigned) [Example 14A], below 1 µM.
Consider `O=C(NC1c2ccccc2-c2c(-c3nc4ccncc4[nH]3)cccc21)c1ccncc1O` (racemic) [Example 103, 3-hydroxy-N-[4-(3H-imidazo[4,5-c]pyridin-2-yl)-9H-fluoren-9(R,S)-yl]-isonicotinamide], for which the half-maximal inhibitory concentration (IC50) is below 1 µM.
For the compound `Nc1cc(C(=O)NC2c3ccccc3-c3c(-c4nc5ccncc5[nH]4)cccc32)ccn1` (racemic) [Example 73, 2-amino-N-[4-(3H-imidazo[4,5-c]pyridin-2-yl)-9H-fluoren-9(R,S)-yl]-isonicotinamide], the concentration for half-maximal inhibition (IC50) is below 1 µM.
Still for that read-out and setting: in the case of `O=C(NCc1ccncc1)C1c2ccccc2-c2c(-c3nc4cnccc4[nH]3)cccc21` (racemic) [Example 4, hydrochloride of the (pyridin-4-ylmethyl)-amide of 4-(3H-imidazo[4,5-c]pyridin-2-yl)-9H-fluorene-9(R,S)-carboxylic acid] it was 10 to 100 µM; in that of `NC(=O)NN=C1c2ccccc2-c2c1cccc2-c1nc2ccncc2[nH]1` [Example 30, trifluoroacetate of 4-(3H-imidazo[4,5-c]pyridin-2-yl)-fluoren-9-one semicarbazone (Z, E)], 10 to 100 µM; in that of `O=C(NC1c2ccccc2-c2c(-c3nc4ccncc4[nH]3)cccc21)c1cc(Cl)cc2[nH]cnc12` (racemic) [Example 44, [4-(3H-imidazo[4,5-c]pyridin-2-yl)-9H-fluoren-9(R,S)-yl]amide of 6-chloro-1H-benzimidazole-4-carboxylic acid], 1 to 10 µM.
Same read-out and setting: next, `O=C(NC1c2ccccc2-c2c(-c3nc4ccncc4[nH]3)cccc21)c1ccnc(Cl)c1` (racemic) [Example 87, 2-chloro-N-[4-(3H-imidazo[4,5-c]pyridin-2-yl)-9H-fluoren-9(R,S)-yl]-isonicotinamide]: 1 to 10 µM; `CN(C)c1cccc2c(S(=O)(=O)NC3c4ccccc4-c4c(-c5nc6ccncc6[nH]5)cccc43)cccc12` (racemic) [Example 52, [4-(3H-imidazo[4,5-c]pyridin-2-yl)-9H-fluoren-9(R,S)-yl]amide trifluoroacetate of 5-dimethylamino-naphthalene-1-sulphonic acid]: 10 to 100 µM; `c1ccc2c(c1)-c1c(-c3nc4cnccc4[nH]3)cccc1C2NCc1ccc2cc[nH]c2c1` (racemic) [Example 22, N-[4-(3H-imidazo[4,5-c]pyridin-2-yl)-9H-fluoren-9(R,S)-yl]-(1H-indol-6-ylmethyl)-amine]: 10 to 100 µM.

The same data set, now with this note: Hsp82 ATPase IC50 μM, 1 μM Hsp82, 250 μM ATP, 37° C., pyruvate kinase/lactate dehydrogenase coupling.
With `NC(=O)NC1c2ccccc2-c2c(-c3nc4ccncc4[nH]3)cccc21` (racemic) [Example 28, [4-(3H-imidazo[4,5-c]pyridin-2-yl)-9H-fluoren-9(R,S)-yl]-urea trifluoroacetate], the concentration for half-maximal inhibition (IC50) was 10 to 100 µM.

Tested on in another data set: not given
Assay: not given
Conditions: not given
The term melting point denotes the temperature of the solid-liquid transition. Compound `NC1c2ccccc2-c2c(-c3nc4ccc(F)cc4[nH]3)cccc21` (racemic) [Example 71, 4-(6-fluoro-1H-benzimidazol-2-yl)-9H-fluoren-9(R,S)-ylamine] displayed a melting point of 170 to 172 °C.
In the case of `O=C1c2ccccc2-c2c1cccc2-c1nc2cnccc2[nH]1` [Example 1, 4-(3H-imidazo[4,5-c]pyridin-2-yl)-fluoren-9-one], the melting point was in the range of 236 to 238 °C.
Consider `Cn1cc(C(=O)NC2c3ccccc3-c3c(-c4nc5ccncc5[nH]4)cccc32)c2cccnc21` (racemic) [Example 101, [4-(3H-imidazo[4,5-c]pyridin-2-yl)-9H-fluoren-9(R,S)-yl]amide of 1-methyl-1H-pyrrolo[2,3-b]pyridine-3-carboxylic acid], for which the melting point was 204 °C (dec.).
In the case of `O=C(NC1c2ccccc2-c2c(-c3nc4cnccc4[nH]3)cccc21)c1cccc2ncccc12` (racemic) [Example 14, [4-(3H-imidazo[4,5-c]pyridin-2-yl)-9H-fluoren-9(R,S)-yl]amide of quinoline-5-carboxylic acid], the melting point was 254 to 258 °C (dec.).
The compound `COc1ccc(C(=O)NC2c3ccccc3-c3c(-c4nc5ccncc5[nH]4)cccc32)cc1` (racemic) [Example 127, N-[4-(3H-imidazo[4,5-c]pyridin-2-yl)-9H-fluoren-9(R,S)-yl]-4-methoxybenzamide] returned a melting point of 194 °C.
